Where two headings read alike, the source gives them in different places.
Assays:
hJAK2 = hJAK2 (Homo sapiens (Human), UniProt O60674); assay: hJAK2 LANCE TR-FRET enzymatic assay; format: biochemical; settings: read-out: JAK2 IC50
TBK1 = TBK1 (Homo sapiens (Human), UniProt Q9UHD2); assay: TBK1 TR-FRET enzymatic assay;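 further: phosphorylation of a biotinylated Ser/Thr peptide by purified full-length recombinant TBK1, read by TR-FRET after 240 min at 25 °C, IC50 is the geometric mean of at least four runs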
Sequence of TBK1 (Q9UHD2 whole entry): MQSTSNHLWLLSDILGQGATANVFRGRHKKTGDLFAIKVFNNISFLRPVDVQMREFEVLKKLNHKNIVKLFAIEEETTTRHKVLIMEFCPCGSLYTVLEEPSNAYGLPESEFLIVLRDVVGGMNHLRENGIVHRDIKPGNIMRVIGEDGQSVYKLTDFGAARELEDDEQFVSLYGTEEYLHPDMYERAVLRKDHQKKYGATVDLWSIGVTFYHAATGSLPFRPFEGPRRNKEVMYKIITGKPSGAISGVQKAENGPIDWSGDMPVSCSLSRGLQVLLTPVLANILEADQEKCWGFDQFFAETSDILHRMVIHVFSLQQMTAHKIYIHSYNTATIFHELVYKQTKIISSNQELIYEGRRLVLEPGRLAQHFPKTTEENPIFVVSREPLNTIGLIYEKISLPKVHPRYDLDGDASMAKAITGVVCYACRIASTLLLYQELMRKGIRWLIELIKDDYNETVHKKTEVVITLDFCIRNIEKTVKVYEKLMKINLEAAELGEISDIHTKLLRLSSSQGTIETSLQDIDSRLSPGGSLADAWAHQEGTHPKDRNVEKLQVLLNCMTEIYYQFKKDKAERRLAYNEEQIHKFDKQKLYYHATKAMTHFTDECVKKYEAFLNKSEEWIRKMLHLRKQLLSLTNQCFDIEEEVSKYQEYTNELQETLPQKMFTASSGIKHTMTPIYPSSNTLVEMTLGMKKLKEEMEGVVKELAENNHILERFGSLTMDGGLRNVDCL

Sequence of hJAK2 (O60674 whole entry): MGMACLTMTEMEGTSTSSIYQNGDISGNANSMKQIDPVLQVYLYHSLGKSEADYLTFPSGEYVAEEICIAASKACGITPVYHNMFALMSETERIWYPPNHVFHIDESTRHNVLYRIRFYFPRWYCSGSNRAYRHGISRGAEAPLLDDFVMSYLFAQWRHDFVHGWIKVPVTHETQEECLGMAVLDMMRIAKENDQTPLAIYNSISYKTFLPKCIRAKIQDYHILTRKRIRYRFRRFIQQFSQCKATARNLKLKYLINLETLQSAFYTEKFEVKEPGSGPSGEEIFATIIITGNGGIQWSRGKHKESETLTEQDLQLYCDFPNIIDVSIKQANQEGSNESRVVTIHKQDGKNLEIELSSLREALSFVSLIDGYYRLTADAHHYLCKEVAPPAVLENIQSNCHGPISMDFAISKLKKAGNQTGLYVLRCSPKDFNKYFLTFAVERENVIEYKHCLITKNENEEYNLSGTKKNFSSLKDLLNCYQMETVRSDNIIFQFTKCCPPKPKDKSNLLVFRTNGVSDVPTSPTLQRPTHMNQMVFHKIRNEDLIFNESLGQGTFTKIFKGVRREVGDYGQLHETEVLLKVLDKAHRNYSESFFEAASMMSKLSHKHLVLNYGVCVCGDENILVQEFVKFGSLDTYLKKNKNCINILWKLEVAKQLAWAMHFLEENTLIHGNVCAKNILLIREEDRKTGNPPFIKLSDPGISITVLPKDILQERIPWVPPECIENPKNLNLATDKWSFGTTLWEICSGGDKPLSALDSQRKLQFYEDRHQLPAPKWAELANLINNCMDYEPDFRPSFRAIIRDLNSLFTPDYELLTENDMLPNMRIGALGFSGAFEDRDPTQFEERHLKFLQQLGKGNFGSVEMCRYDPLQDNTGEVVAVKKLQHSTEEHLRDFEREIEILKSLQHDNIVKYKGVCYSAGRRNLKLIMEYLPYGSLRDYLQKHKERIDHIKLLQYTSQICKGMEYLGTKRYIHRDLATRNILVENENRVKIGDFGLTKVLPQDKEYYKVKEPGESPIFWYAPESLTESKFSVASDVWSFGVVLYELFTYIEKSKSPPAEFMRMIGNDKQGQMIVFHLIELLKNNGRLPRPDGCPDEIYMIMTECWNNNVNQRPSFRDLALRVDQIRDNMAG

| IC50 (hJAK2) | IC50 (TBK1) | Compound | IC50 (TBK1; TBK1 IC50) |
| --- | --- | --- | --- |
| 189 nM | 1 nM | N#Cc1cc(-c2ncnc(Nc3ccc(N4CCO[C@@H](CO)C4)cc3)n2)ccc1O[C@H]1CCN(C(=O)CO)C[C@H]1F [Example 229, 2-(((3R,4S)-3-fluoro-1-(2-hydroxyacetyl)piperidin-4-yl)oxy)-5-(4-((4-((R)-2-(hydroxymethyl)morpholino)phenyl)amino)-1,3,5-triazin-2-yl)benzonitrile] |  |
| 46 nM | 1 nM | C[C@H]1CN(c2ccc(Nc3ncnc(-c4ccc(O[C@H]5CCN(C(=O)CO)CC5(F)F)c(C#N)c4)n3)cc2)CCN1C1COC1 [Example 261, 2-(((S)-3,3-difluoro-1-(2-hydroxyacetyl)piperidin-4-yl)oxy)-5-(4-((4-((S)-3-methyl-4-(oxetan-3-yl)piperazin-1-yl)phenyl)amino)-1,3,5-triazin-2-yl)benzonitrile] |  |
| 444 nM | 9 nM | N#CCC(=O)N1CCC(Oc2ccc(-c3ncnc(Nc4ccc(N5CCN(C6COC6)CC5)cc4)n3)cc2C#N)CC1 [Example 44, 2-((1-(2-cyanoacetyl)piperidin-4-yl)oxy)-5-(4-((4-(4-(oxetan-3-yl)piperazin-1-yl)phenyl)amino)-1,3,5-triazin-2-yl)benzonitrile] |  |
| 182 nM | 2 nM | C[C@H]1CN(C)CCN1c1ccc(Nc2ncnc(-c3ccc(O[C@H]4CCN(C(=O)CO)C[C@H]4F)c(C#N)c3)n2)cc1 [Example 500, 5-(4-((4-((S)-2,4-dimethylpiperazin-1-yl)phenyl)amino)-1,3,5-triazin-2-yl)-2-(((3R,4S)-3-fluoro-1-(2-hydroxyacetyl)piperidin-4-yl)oxy)benzonitrile] |  |
| 387 nM | 3 nM | N#Cc1cc(-c2ncnc(Nc3ccc(N4CCN(C5COC5)CC4)cc3)n2)ccc1O[C@@H]1CCN(C(=O)CO)C1 [Example 30, (R)-2-((1-(2-hydroxyacetyl)pyrrolidin-3-yl)oxy)-5-(4-((4-(4-(oxetan-3-yl)piperazin-1-yl)phenyl)amino)-1,3,5-triazin-2-yl)benzonitrile] |  |
| 160 nM |  | CC1(C)CN(C(=O)CO)CCC1Oc1ccc(-c2ncnc(Nc3ccc(N4CCN(C5COC5)CC4)cc3)n2)cc1C#N (racemic) [Example 174, 2-((1-(2-hydroxyacetyl)-3,3-dimethylpiperidin-4-yl)oxy)-5-(4-((4-(4-(oxetan-3-yl)piperazin-1-yl)phenyl)amino)-1,3,5-triazin-2-yl)benzonitrile] |  |
| 248 nM |  | N#Cc1cc(-c2ncnc(Nc3ccc(N4CCN(C5COC5)CC4)cc3)n2)ccc1OC1CCN(C(=O)c2ncc[nH]2)CC1(F)F (stereo not drawn) [Example 163, 2-((3,3-difluoro-1-(1H-imidazole-2-carbonyl)piperidin-4-yl)oxy)-5-(4-((4-(4-(oxetan-3-yl)piperazin-1-yl)phenyl)amino)-1,3,5-triazin-2-yl)benzonitrile] |  |
| 56 nM |  | N#Cc1cc(-c2ncnc(Nc3ccc(N4CCN(C5COC5)CC4)cc3)n2)ccc1O[C@@H]1CCN(C(=O)CO)CC1(F)F (single isomer, unassigned) [Example 153] |  |
| 320 nM |  | CC(=O)N1CC[C@H](Oc2ccc(-c3ncnc(Nc4ccc(S(C)(=N)=O)cc4)n3)cc2C#N)C(F)(F)C1 (stereo partly drawn) [Example 481] |  |

Second part, the compound before the results:

| Compound | IC50 (hJAK2) | IC50 (TBK1) | IC50 (TBK1; TBK1 IC50) |
| --- | --- | --- | --- |
| C[C@H](O)C(=O)N1CC[C@H](Oc2ccc(-c3ncnc(Nc4ccc(N5C6COCC5C6)cc4)n3)cc2C#N)[C@H](F)C1 [Example 366, 5-(4-((4-(3-oxa-6-azabicyclo[3.1.1]heptan-6-yl)phenyl)amino)-1,3,5-triazin-2-yl)-2-(((3R,4S)-3-fluoro-1-((S)-2-hydroxypropanoyl)piperidin-4-yl)oxy)benzonitrile] | 531 nM |  | 3 nM |
| N#Cc1cc(-c2ncnc(Nc3ccc(C4CCN(C5COC5)CC4)cc3)n2)ccc1O[C@H]1CCN(C(=O)c2ccn[nH]2)C[C@H]1F [Example 318, 2-(((3R,4S)-3-fluoro-1-(1H-pyrazole-5-carbonyl)piperidin-4-yl)oxy)-5-(4-((4-(1-(oxetan-3-yl)piperidin-4-yl)phenyl)amino)-1,3,5-triazin-2-yl)benzonitrile] | ≥ 1000 nM | 2 nM |  |
| COc1cc(Nc2ncnc(-c3ccc(O[C@H]4CCN(C(=O)CO)C[C@H]4F)c(C#N)c3)n2)ccc1N1CCN(C)C[C@@H]1C [Example 508, 5-(4-((4-((S)-2,4-dimethylpiperazin-1-yl)-3-methoxyphenyl)amino)-1,3,5-triazin-2-yl)-2-(((3R,4S)-3-fluoro-1-(2-hydroxyacetyl)piperidin-4-yl)oxy)benzonitrile] | 49 nM | 2 nM |  |
| N#Cc1cc(-c2ncnc(Nc3ccc(N4CCN(C5COC5)CC4)cc3)n2)ccc1OCCCN1CCCC1=O [Example 600, 5-(4-((4-(4-(oxetan-3-yl)piperazin-1-yl)phenyl)amino)-1,3,5-triazin-2-yl)-2-(3-(2-oxopyrrolidin-1-yl)propoxy)benzonitrile] | ≥ 1000 nM | 517 nM |  |
| C[C@H](O)C(=O)N1CC[C@H](Oc2ccc(-c3ncnc(Nc4ccc(N5CCN(C)C[C@@H]5C)cc4)n3)cc2C#N)[C@H](F)C1 [Example 501, 5-(4-((4-((S)-2,4-dimethylpiperazin-1-yl)phenyl)amino)-1,3,5-triazin-2-yl)-2-(((3R,4S)-3-fluoro-1-((S)-2-hydroxypropanoyl)piperidin-4-yl)oxy)benzonitrile] | 457 nM | 2 nM |  |
| Cc1cc(Nc2ncnc(-c3ccc(O[C@H]4CCN(C=O)CC4(F)F)c(C#N)c3)n2)ccc1C1CCN(C)CC1 [Example 304, (S)-2-((3,3-difluoro-1-formylpiperidin-4-yl)oxy)-5-(4-((3-methyl-4-(1-methylpiperidin-4-yl)phenyl)amino)-1,3,5-triazin-2-yl)benzonitrile] | ≥ 1000 nM | 2 nM |  |
| C[C@H]1CN(C2COC2)CCN1c1ccc(Nc2ncnc(-c3ccc(O[C@H]4CCN(C(=O)[C@@H]5CCC(=O)N5)C[C@H]4F)c(C#N)c3)n2)cc1 [Example 381, 2-(((3R,4S)-3-fluoro-1-((S)-5-oxopyrrolidine-2-carbonyl)piperidin-4-yl)oxy)-5-(4-((4-((S)-2-methyl-4-(oxetan-3-yl)piperazin-1-yl)phenyl)amino)-1,3,5-triazin-2-yl)benzonitrile] | ≥ 1000 nM |  |  |
| C[C@H](O)C(=O)N1CC[C@H](Oc2ccc(-c3ncnc(Nc4ccc(O[C@H]5CCN(C6COC6)C[C@H]5F)cc4)n3)cc2C#N)[C@H](F)C1 [Example 401, 2-(((3R,4S)-3-fluoro-1-((S)-2-hydroxypropanoyl)piperidin-4-yl)oxy)-5-(4-((4-(((3R,4S)-3-fluoro-1-(oxetan-3-yl)piperidin-4-yl)oxy)phenyl)amino)-1,3,5-triazin-2-yl)benzonitrile] | ≥ 1000 nM |  |  |
| N#Cc1cc(-c2ncnc(Nc3ccc(N4CCN(C5COC5)CC4)cc3)n2)ccc1O[C@H]1CCN(C(=O)c2cc(Cl)n[nH]2)C[C@H]1F [Example 324, 2-(((3R,4S)-1-(3-chloro-1H-pyrazole-5-carbonyl)-3-fluoropiperidin-4-yl)oxy)-5-(4-((4-(4-(oxetan-3-yl)piperazin-1-yl)phenyl)amino)-1,3,5-triazin-2-yl)benzonitrile] | 237 nM |  |  |
| N#Cc1cc(-c2ncnc(Nc3cnn(C(F)F)c3)n2)ccc1O[C@H]1CCN(C(=O)CO)C[C@H]1F [Example 454, 5-(4-((1-(difluoromethyl)-1H-pyrazol-4-yl)amino)-1,3,5-triazin-2-yl)-2-(((3R,4S)-3-fluoro-1-(2-hydroxyacetyl)piperidin-4-yl)oxy)benzonitrile] | 621 nM |  |  |
| CN1CCN(c2ccc(Nc3ncnc(-c4ccc(OC5CCOCC5)c(C#N)c4)n3)cc2)CC1 [Example 12, 5-(4-((4-(4-methylpiperazin-1-yl)phenyl)amino)-1,3,5-triazin-2-yl)-2-((tetrahydro-2H-pyran-4-yl)oxy)benzonitrile] | 162 nM |  |  |
| N#Cc1cc(-c2ncnc(Nc3ccc(N4CCN(C5COC5)CC4)cc3)n2)ccc1O[C@H]1CCN(C(=O)[C@@H]2C[C@H](O)C(=O)N2)C[C@H]1F [Example 410, 2-(((3R,4S)-3-fluoro-1-((2S,4S)-4-hydroxy-5-oxopyrrolidine-2-carbonyl)piperidin-4-yl)oxy)-5-(4-((4-(4-(oxetan-3-yl)piperazin-1-yl)phenyl)amino)-1,3,5-triazin-2-yl)benzonitrile] | 450 nM |  |  |
| Cc1n[nH]c(C(=O)N2CC[C@H](Oc3ccc(-c4ncnc(Nc5ccc(N6CCN(C7COC7)CC6)cc5)n4)cc3C#N)[C@H](F)C2)n1 [Example 451, 2-(((3R,4S)-3-fluoro-1-(3-methyl-1H-1,2,4-triazole-5-carbonyl)piperidin-4-yl)oxy)-5-(4-((4-(4-(oxetan-3-yl)piperazin-1-yl)phenyl)amino)-1,3,5-triazin-2-yl)benzonitrile] | 90 nM |  |  |
| COc1cc(Nc2ncnc(-c3ccc(O[C@H]4CCN(C(=O)[C@@H](O)CO)C[C@H]4F)c(C#N)c3)n2)ccc1N1CCN(C2COC2)CC1 [Example 578, 2-(((3R,4S)-1-((S)-2,3-dihydroxypropanoyl)-3-fluoropiperidin-4-yl)oxy)-5-(4-((3-methoxy-4-(4-(oxetan-3-yl)piperazin-1-yl)phenyl)amino)-1,3,5-triazin-2-yl)benzonitrile] | 70 nM |  |  |
| Cc1cc(Nc2ncnc(-c3ccc(O[C@H]4CCN(C(=O)[C@H](O)CO)C[C@H]4F)c(C#N)c3)n2)ccc1N1CCN(C2COC2)CC1 [Example 576, 2-(((3R,4S)-1-((R)-2,3-dihydroxypropanoyl)-3-fluoropiperidin-4-yl)oxy)-5-(4-((3-methyl-4-(4-(oxetan-3-yl)piperazin-1-yl)phenyl)amino)-1,3,5-triazin-2-yl)benzonitrile] | 56 nM |  |  |
| COc1cc(Nc2ncnc(-c3ccc(O[C@H]4CCN(C(=O)[C@H](O)CO)C[C@H]4F)c(C#N)c3)n2)ccc1N1CCN(C2COC2)CC1 [Example 579, 2-(((3R,4S)-1-((R)-2,3-dihydroxypropanoyl)-3-fluoropiperidin-4-yl)oxy)-5-(4-((3-methoxy-4-(4-(oxetan-3-yl)piperazin-1-yl)phenyl)amino)-1,3,5-triazin-2-yl)benzonitrile] | 48 nM |  |  |

— patent US10040781B2, “Tank-binding kinase inhibitor compounds” (Gilead Sciences, Inc., priority 2014, dated 2018)
